Data as given in patent publication US20080223379A1, “METHODS AND COMPOSITIONS FOR THE TREATMENT OR PROPHYLAXIS OF TENDON AND LIGAMENT INJURY” (DOBAVET GmbH, priority 2007, published 2008).

Tested on: tendon tissue damaged due to ruptured tendon fibrils and hematoma
Experiment: Oral calcium dobesilate therapy of tendon damage in horses, sonographic follow-up
Assay type: in vivo, horse
Conditions: adult horses; 1400 mg with the food twice a day (corresponding to 4 mg/kg body weight/day); four months; sonography after one, two and four months; horses walked
Protocol: Calcium dobesilate was administered with the food in a dose of 1400 mg per adult horse, twice a day each (corresponding to 4 mg/kg body weight/day). The therapy is carried out for four months. Therapy progress is documented sonographically after one month, after two months and after four months. During therapy, the horses are walked.

## O=S(=O)([O][Ca][O]S(=O)(=O)c1cc(O)ccc1O)c1cc(O)ccc1O [Calcium dobesilate, calcium dobesilate]
  Sonographic therapy progression (structure and density of the tendon in the ultrasound image): the tendon sections hypoechogenic at the beginning of therapy show a physiological structure and density of the tendon in the ultrasound image at the end of therapy
